Paper PMC5318439, “The Novel Toll-Like Receptor 2 Agonist SUP3 Enhances Antigen Presentation and T Cell Activation by Dendritic Cells” (Frontiers in Immunology, 2017)
Where a SMILES comes first, the peptide text is derived from it. The star is where a group is joined. X1 = CCCCCCCCCCCCCCNC(=O)OC[C@H](C*)OC(=O)NCCCCCCCCCCCCCC; Palmitoyl = CCCCCCCCCCCCCCCC(=O)*

What was measured:
[1] = tested on: splenic CD8^+ cDCs; test: CD40 and CD86 expression on splenic CD8+ cDCs after i.v. administration; type: in vivo, mice; settings: 2 nmol per mouse i.v., 1 h
Description: Figure 4 SUP3 stimulated maturation of CD8^+ conventional dendritic cells (cDCs). (A) Purified CD8^+ cDCs were treated with SUP3 (200 nM) or Pam3 (200 nM) in the presence of granulocyte-macrophage colony-stimulating factor (GM-CSF) (20 ng/mL) for 24 h. The surface expression of costimulatory and major histocompatibility complex (MHC) molecules were then analyzed by flow cytometry. Representative data from three independent experiments were shown. “Isotype” represented relative isotype antibody staining of Pam3 or SUP3 stimulated cells. (B) SUP3 (2 nmol per mouse), Pam3 (2 nmol per mouse), or PBS were i.v. injected into mice for 1 h. Splenic CD8^+ cDCs were enriched, and surface expression of CD40 and CD86 was analyzed by flow cytometry. Representative data from two independent experiments with three mice for each group were shown. (C) Purified CD8^+ cDCs were treated with SUP3 (200 nM) or Pam3 (200 nM) for indicated periods (0~120 min), and western blot analysis was performed with the cell lysate for phosphorylated p65 (p-p65), IκBα, p-ERK, ERK, p-JNK, JNK, p-p38, and p38. Blot of p38 was also regarded as loading control. (D) Purified CD8^+ cDCs were treated with CpG 1668 (20 nM), SUP3 (200 nM), or Pam3 (200 nM) in the presence of GM-CSF (20 ng/mL). Supernatants were harvested 24 and 48 h post-stimulation, and cytokines were measured by ELISA. […]

[2] = tested on: splenic CD11b^+ cDCs; test: CD86 expression on splenic CD11b+ cDCs after i.v. administration; type: in vivo, mice; settings: 2 nmol per mouse i.v., 1 h
Description: Figure 5 SUP3 enhanced antigen presentation ability of CD11b^+ conventional dendritic cells (cDCs) and production of antibodies against thymus-dependent (TD) antigens. (A) Mice were immunized by TD antigen nitrophenyl-keyhole limpet hemocyanin (NP-KLH) (5 µg per mouse) with or without SUP3 (2 nmol per mouse), Pam3 (2 nmol per mouse), or alum (3 µg per mouse) as adjuvants, respectively. Serum IgM (nitrophenyl 30mer-captured, NP30-captured), total IgG (NP30-captured), and high affinity IgG (nitrophenyl 8mer-captured, NP8-captured) specific to NP at indicated time points were examined by ELISA. […] Three days after immunization, division of OT-II CD4^+ T cells from inguinal lymph nodes were analyzed by flow cytometry (B). Absolute numbers of proliferated OT-II CD4^+ T cells were calculated in (C). […] Cells were then thoroughly washed and cocultured with CFSE-stained OT-II CD4^+ T cells for 4 days and analyzed by flow cytometry. (D) The division of OT-II cells was measured by reduced level of CFSE-labeling. (E) Absolute numbers of proliferated T cells from (D) were calculated. (F) SUP3 (2 nmol per mouse), Pam3 (2 nmol per mouse), or PBS were i.v. injected into mice for 1 h, and splenic CD11b^+ cDCs were enriched and analyzed for CD86 expression by flow cytometry. […] The cytokines from supernatant were determined by ELISA (*p < 0.05, **p < 0.01). […]

[3] = tested on: splenic B cells; test: B cell activation markers in vitro; type: cell-based, mice; settings: 200 nM, 2 × 10^6 cells/mL, 24 h
Description: Splenic DCs were purified as described previously ([37]). CD8^+ cDCs expanded by B16-Flt3L inoculation were enriched, and then CD8^+ cDCs were positively sorted by MACS technology (Miltenyi Biotec). Splenic B cells were purified through negative selection by Streptavidin-MicroBeads (Miltenyi Biotec 130-048-102) combined with different antibodies cocktail to exclude non-B cells. The antibodies cocktail was composed of biotinylated antibodies against CD4 (T cells and DCs) (eBioscience, clone GK1.5), CD8 (T cells and DCs) (eBioscience, clone 53-6.7), CD43 (T cells, monocytes, granulocytes) (eBioscience, clone eBioR2/60), and Ter119 (erythrocytes) (eBioscience, clone TER119). B cells were further purified through MACS LS column (Miltenyi Biotec 130-042-401).
Figure 7 SUP3 promoted stronger B cell activation in vitro. Purified splenic B cells (2 × 10^6 cells/mL) were treated with SUP3 (200 nM), Pam3 (200 nM), or lipopolysaccharide (LPS) (1.5 µg/mL), respectively. (A) Surface CD25, CD40, and CD86 were stained 24 h post-stimulation. (B) Supernatants were harvested 3 or 5 days post-stimulation, and total IgM in the supernatant was determined by ELISA. Representative data was from two independent experiments with triplicated wells in each group (**p < 0.01).

Row | Compound | expressions of CD40 and CD86 on splenic CD8+ cDCs in vivo [1] | CD86 on splenic CD11b+ cDC in vivo [2] | CD25, CD40, and CD86 on B lymphocytes [3]
1 | Pam3CSK4 [reference compound] | increased | CD86 upregulation | marked upregulation
2 | CCCCCCCCCCCCCCCC(=O)N[C@@H](CSC[C@@H](COC(=O)NCCCCCCCCCCCCCC)OC(=O)NCCCCCCCCCCCCCC)C(=O)NCC(=O)N[C@@H](CCCCN)C(=O)N[C@@H](CCCCN)C(=O)N[C@@H](CCCCN)C(=O)O [SUP3, (2S,5S,8S,14R,18R)-2,5,8-tris(4-aminobutyl)-4,7,10,13,21-pentaoxo-14-palmitamido-18-((tetradecylcarbamoyl)oxy)-20-oxa-16-thia-3,6,9,12,22-pentaazahexatriacontan-1-oic acid] (Palmitoyl-C(X1)GKKK-OH) | increased | CD86 upregulation | marked upregulation
